This test concerns the target T1, human GPR40 (Homo sapiens, UniProt O14842).
T1 construct: expressed in transfected cells
Kind of test: Ca2+ mobilization (FLIPR) in a stable GPR40-expressing cell; GPR40 agonist activity. The test is classed as cell-based. The note with it: compound concentration corresponding to 50% PosiC, 100% = intracellular calcium level induced by 80 μM palmitic acid. The protocol: Evaluation of effect of test compounds on Ca^2+ mobilization by using a stable GPR40-expressing cell A stable human GPR40-expressing HEK293 cell was used. A cell suspension was prepared such that the above-mentioned cells were present at 6×10^5 cells/mL in a cell culture medium (D-MEM (Nikken Bio Medical Laboratory) supplemented with 10% (v/v) fetal bovine serum (Biowest) and 1% (v/v) penicillin-streptomycin solution (Invitrogen)). The cell suspension was plated in a 384-well plate (poly-D-lysine coated plate; Falcon) in a volume of 25 μl/well, and the plate was incubated at 37° C. in an atmosphere of 5% CO2 overnight. Each test compound was added to the cell at each concentration as below, and then the change in intracellular calcium level was measured by FLIPR^TETRA (Molecular Devices). Before the FLIPR assay, the following preparative solutions were prepared. First, an assay buffer was prepared for use in the preparation of a fluorescent dye solution and a diluent buffer solution. The assay buffer was prepared by adding 1M HEPES solution (Invitrogen) to Hanks' Balanced Salt Solution (Invitrogen), followed by adjusting the pH to 7.4 with 1M NaOH (Nacalai Tesque). Next, the fluorescent dye solution and the diluent buffer solution were prepared. The fluorescent dye solution was prepared in accordance with the instruction manual attached to Fluo-4NW calcium assay kit (Invitrogen), followed by addition of bovine serum albumin (Sigma) to a final concentration of 0.1% (w/v). The diluent buffer solution was prepared by adding bovine serum albumin (Sigma) to the assay buffer to give a final concentration of 0.1% (w/v). After removing a medium supernatant from the cell culture plate incubated overnight, the fluorescent dye solution was added to the plate in a volume of 25 μl/well. The plate was incubated at 37° C. in an atmosphere of 5% CO2 for 90 minutes to promote the fluorescent dye uptake in the cell. Meanwhile, the test compounds (i.e., the compounds prepared in Examples) dissolved in dimethyl sulfoxide (DMSO; Nacalai Tesque) were diluted with the diluent buffer solution, to prepare each compound solution at each concentration. In addition, a palmitic acid solution was prepared as a positive control solution (hereinafter abbreviated as PosiC). A 40 μl aliquot of each sample solution prepared as above was added to each well of a 384-well polypropylene plate to prepare a compound plate. Finally, after the sufficient uptake of the fluorescent dye in the cell, the cell plate and the compound plate were set to FLIPR^TETRA. After the above pretreatment, the change in intracellular calcium level was measured by FLIPR^TETRA upon addition of 25 μl of each test compound solution at each concentration. The GPR40 agonist activity of each test compound at each concentration was determined as a relative activity level (% PosiC) with the intracellular calcium level induced by 80 μM palmitic acid (a GPR40 agonist) set to 100%. Next, each compound concentration corresponding to 50% PosiC was calculated based on the % PosiC value, to compare between agonist activities of the test compounds. In the tables, “++++” indicates 0.01 μM or more but less than 0.1 μM, “+++” indicates 0.1 μM or more but less than 1 μM, “++” indicates 1 μM or more but less than 10 μM, and “+” indicates 10 μM or more for 50% posiC value. In the tables, “N.T.” indicates “not tested”.
(Calcium assays in cells follow changes in intracellular calcium, usually with a dye or a luminescent sensor.)

The structures appear in SMILES notation. Counter-ions that a name gives are not always drawn.

T1 sequence (O14842 whole entry): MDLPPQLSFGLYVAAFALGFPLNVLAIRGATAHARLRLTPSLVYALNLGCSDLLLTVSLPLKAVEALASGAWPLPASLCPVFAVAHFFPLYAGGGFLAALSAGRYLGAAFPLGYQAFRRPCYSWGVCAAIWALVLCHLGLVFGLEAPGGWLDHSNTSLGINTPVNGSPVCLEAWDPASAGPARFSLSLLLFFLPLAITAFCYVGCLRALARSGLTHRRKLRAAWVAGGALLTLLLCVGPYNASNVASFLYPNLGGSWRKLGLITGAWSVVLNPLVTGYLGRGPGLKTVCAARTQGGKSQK

In general, EC50 refers to the concentration that produces a half-maximal response. On to `CCOC(CC(=O)O)c1ccc(OCC2=CC3(CCCCC3)CCC2)cc1` (single isomer, unassigned; (-)) [Example 120, (−)-3-ethoxy-3-[4-(spiro[5.5]undec-1-en-2-ylmethoxy)-phenyl]-propionic acid L-lysine salt], for which the EC50 was in the range of 0.1 to 1 µM. Consider `O=C(O)CCc1ccc(OCCC2CCCC3(CCCCC3)C2)cc1` (racemic) [Example 62, 3-[4-(2-spiro[5.5]undec-2-yl-ethoxy)-phenyl]-propionic acid], for which the EC50 was not below 10 µM. Next, `CC#C[C@@H](CC(=O)O)c1ccc(OCC2=CC3(CCCC3)CCC2)cc1` [Example 8, (S)-3-[4-(spiro[4.5]dec-6-en-7-ylmethoxy)-phenyl]-hex-4-ynoic acid sodium salt]: 0.1 to 1 µM; `O=C(O)CCc1ccc(OCC2=CC3(CCCC3)CCC2)cc1Cl` [Example 108, 3-[2-chloro-4-(spiro[4.5]dec-6-en-7-ylmethoxy)-phenyl]-propionic acid]: 1 to 10 µM.

Turning to `CC#C[C@@H](CC(=O)O)c1ccc(OCC2CCCC3(CCCCC3)C2)cc1` (stereo partly drawn) [Example 29, (3S)-3-[4-(spiro[5.5]undec-2-ylmethoxy)-phenyl]-hex-4-ynoic acid sodium salt], the EC50 is 0.1 to 1 µM.

On to `CC#C[C@@H](CC(=O)O)c1ccc(OCC2=CCCC3(CCCC3)C2)cc1` [Example 6, (S)-3-[4-(spiro[4.5]dec-7-en-7-ylmethoxy)-phenyl]-hex-4-ynoic acid sodium salt], for which the EC50 lay within 0.1 to 1 µM.

In the case of `CC1(C)CC(COc2ccc(CCC(=O)O)cc2)CC2(CCCC2)C1` (racemic) [Example 115, 3-[4-(9,9-dimethyl-spiro[4.5]dec-7-ylmethoxy)-phenyl]-propionic acid], the EC50 was in the range of 1 to 10 µM. As to `CCCOC(CC(=O)O)c1ccc(OCC2CCCC3(CCCCC3)C2)cc1` (racemic) [Example 83, 3-propoxy-3-[4-(spiro[5.5]undec-2-ylmethoxy)-phenyl]-propionic acid], the EC50 was in the range of 0.1 to 1 µM.

For the molecule `O=C(O)CCc1ccc(OCC2CCCC3(CCCCC3)C2)cc1` (racemic) [Example 46, 3-[4-(spiro[5.5]undec-2-ylmethoxy)-phenyl]-propionic acid], the EC50 fell in the range of 1 to 10 µM. Consider `CCC(CC(=O)O)c1ccc(OCC2CCCC3(CCCCC3)C2)cc1` (racemic) [Example 87, 3-[4-(spiro[5.5]undec-2-ylmethoxy)-phenyl]-pentanoic acid], for which the concentration for a half-maximal effect (EC50) fell in the range of 1 to 10 µM. As to `COC1CCC2(CCC(COc3ccc(CCC(=O)O)cc3)CC2)CC1` (racemic) [Example 114, 3-[4-(9-methoxy-spiro[5.5]undec-3-ylmethoxy)-phenyl]-propionic acid], the EC50 was not below 10 µM. For the molecule `CCOC(CC(=O)O)c1ccc(OCC2=CC3(CCCCC3)CCC2)cc1` (racemic) [Example 41, 3-ethoxy-3-[4-(spiro[5.5]undec-1-en-2-ylmethoxy)-phenyl]-propionic acid], the half-maximal effective concentration (EC50) lay within 0.01 to 0.1 µM. Regarding `O=C(O)CCc1ccc(OCC2CCCC3(CCCCCC3)C2)cc1` (racemic) [Example 49, 3-[4-(spiro[5.6]dodec-2-ylmethoxy)-phenyl]-propionic acid], the 50% effective concentration (EC50) is 1 to 10 µM. Then `O=C(O)CC(c1ccccc1)c1ccc(OCC2CCCC3(CCCCC3)C2)cc1` (racemic) [Example 60, 3-phenyl-3-[4-(spiro[5.5]undec-2-ylmethoxy)-phenyl]-propionic acid], with 1 to 10 µM; and `CC#C[C@H](CC(=O)O)c1ccc(OCC2CCCC3(CCCCC3)C2)cc1` (mixture of isomers) [Example 58, (3R)-3-[4-(spiro[5.5]undec-2-ylmethoxy)-phenyl]-hex-4-ynoic acid], with 1 to 10 µM; and `CC#C[C@@H](CC(=O)O)c1ccc(OCC2=C[C@@]3(CCC2)CC[C@@H](O)C3)cc1` [Example 101, (3S)-3-[4-((2R,5S)-2-hydroxy-spiro[4.5]dec-6-en-7-ylmethoxy)-phenyl]-hex-4-ynoic acid sodium salt], with 0.1 to 1 µM. As for `CCOC(CC(=O)O)c1ccc(OCC2=CC3(CCCCC3)CCC2)cc1` (single isomer, unassigned; (-)) [Example 42, (−)-3-ethoxy-3-[4-(spiro[5.5]undec-1-en-2-ylmethoxy)-phenyl]-propionic acid], the EC50 is 0.01 to 0.1 µM. Next, `Cn1nnnc1C(CC(=O)O)c1ccc(OCC2CCCC3(CCCCC3)C2)cc1` (racemic) [Example 40, 3-(1-methyl-1H-tetrazol-5-yl)-3-[4-(spiro[5.5]undec-2-ylmethoxy)-phenyl]-propionic acid]: 0.01 to 0.1 µM; `CC#C[C@@H](CC(=O)O)c1ccc(OCC2=C[C@]3(CCC2)CC[C@@H](O)C3)cc1` [Example 105, (3S)-3-[4-((2R,5R)-2-hydroxy-spiro[4.5]dec-6-en-7-ylmethoxy)-phenyl]-hex-4-ynoic acid sodium salt]: 1 to 10 µM; `CC#C[C@H](CC(=O)O)c1ccc(OCC2=CC3(CCCC3)CCC2)cc1` [Example 94, (R)-3-[4-(spiro[4.5]dec-6-en-7-ylmethoxy)-phenyl]-hex-4-ynoic acid L-lysine salt]: 1 to 10 µM.

Regarding `CC#C[C@@H](CC(=O)O)c1ccc(OCC2CCC3(CCCCC3)C2)cc1` (stereo partly drawn) [Example 27, (3S)-3-[4-(spiro[4.5]dec-2-ylmethoxy)-phenyl]-hex-4-ynoic acid sodium salt], the EC50 lay within 0.1 to 1 µM. Then `CC#C[C@@H](CC(=O)O)c1ccc(OCC2CCCCC23CCCCC3)cc1` (mixture of isomers) [Example 72, (3S)-3-[4-(spiro[5.5]undec-1-ylmethoxy)-phenyl]-hex-4-ynoic acid], with 1 to 10 µM; and `CC#C[C@@H](CC(=O)O)c1ccc(OCC2=CCCC3(CCCCC3)C2)cc1` [Example 1, (S)-3-[4-(spiro[5.5]undec-2-en-2-ylmethoxy)-phenyl]-hex-4-ynoic acid], with 0.01 to 0.1 µM.

The values above are taken from patent US8299296B2, “Spiro compounds and pharmaceutical use thereof” (Japan Tobacco Inc., priority 2007, dated 2012).
